Reference: PubChem BioAssay (NCI)
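96-well plates; 48 h exposure; 5 concentrations. Endpoints by linear interpolation between flanking doses. Not reached: highest tested concentration assigned. GI50: concentration for 50% inhibition of growth. TGI marks complete inhibition of growth.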

Columns and labels:
Test in all cases: growth of human tumour cells (NCI), 48 h
[1] = system: HCT-15 colon
[2] = system: BT-549 breast
[3] = system: T-47D breast
[4] = system: HT29 colon
[5] = system: A549 NSCLC
[6] = system: MALME-3M melanoma
[7] = system: HCT-116 colon
[8] = system: SK-MEL-28 melanoma
[9] = system: SR leukemia
[10] = system: SF-539 CNS

| Structure (SMILES) | TGI [1] | TGI [2] | TGI [3] | TGI [4] | TGI [5] | TGI [6] | TGI [7] | TGI [8] | TGI [9] | TGI [10] | GI50 [1] | GI50 [2] | GI50 [9] | GI50 [3] | GI50 [4] | GI50 [5] | GI50 [7] | GI50 [8] | GI50 [10] |
| --- | --- | --- | --- | --- | --- | --- | --- | --- | --- | --- | --- | --- | --- | --- | --- | --- | --- | --- | --- |
| CN(C)Cc1cc(O)c(O)c(CN(C)C)c1 | > 100 µM | > 100 µM | > 100 µM | > 100 µM | > 100 µM | > 100 µM | > 100 µM | > 100 µM |  |  |  |  |  |  |  |  |  |  |  |
| [N-]=[N+]=CC(=O)OCC1SCCCS1 | > 100 µM | > 100 µM |  | > 100 µM |  | > 100 µM | > 100 µM | > 100 µM | > 100 µM |  |  |  |  |  |  |  |  |  |  |
| COc1ccc2c(c1)n([O-])c(C#N)c(N1CCN(c3ccc([N+](=O)[O-])cc3)CC1)[n+]2=O | > 100 µM | > 76.7 µM | 14.8 µM | > 100 µM | > 100 µM | 19.1 µM | > 100 µM | > 69.7 µM |  | 6.23 µM |  |  |  |  |  |  |  |  |  |
| C=C1C(=O)OCC2C(C(=O)O)=CC3C(C)C(C)=CC123 (stereo not given) | 43.8 µM |  |  | 44.4 µM | 77.1 µM | 17.6 µM | 35.5 µM | 7.64 µM |  | 23.9 µM |  |  |  |  |  |  |  |  |  |
| C#CC(F)(F)[C@]1(O)CC[C@H]2[C@@H]3CCC4=CC(=O)CCC4=C3[C@@H](c3ccc(C(C)=O)cc3)C[C@@]21C | 56.8 µM | 55.2 µM | 36.1 µM | > 50.5 µM | > 100 µM |  | 42.6 µM | > 72.4 µM | 37 µM |  | 14.3 µM | 15.5 µM | 0.868 µM | < 0.0135 µM | 0.109 µM | 25.9 µM | 14.1 µM | 16.2 µM |  |
| COc1cc(/C=C2\N=C(c3ccccc3)N(c3nc4c(OC)ccc(OC)c4s3)C2=O)cc(OC)c1OC | > 100 µM | > 100 µM | > 100 µM | > 100 µM | > 100 µM | > 100 µM | > 100 µM | > 100 µM |  |  |  |  |  |  |  |  |  |  |  |
| CCOc1nc(-c2ccccc2)cc(-c2ccc(N3CCOCC3)cc2)c1C#N | > 100 µM | > 100 µM |  | > 100 µM | > 100 µM | > 100 µM | > 100 µM | > 100 µM | > 100 µM | > 100 µM |  |  |  |  |  |  |  |  |  |
| COc1cccc(N(CN2CC=CC2=O)C(C)=O)c1 | > 100 µM |  | > 100 µM | > 100 µM | > 100 µM | > 100 µM | > 100 µM | > 100 µM |  | > 100 µM |  |  |  |  |  |  |  |  |  |
| COc1cccc(Cc2c3cc(OC)ccc3cc[n+]2C)c1 | > 100 µM |  |  | > 100 µM | > 100 µM | > 100 µM |  | > 100 µM |  |  |  |  |  |  |  |  |  |  |  |
| O=C(NC1CCN(Cc2ccccc2)CC1)c1cc2nc(-c3ccc(Cl)s3)cc(C(F)(F)F)n2n1 |  | > 100 µM | > 100 µM | > 100 µM | > 100 µM |  | > 100 µM |  | 4.97 µM | > 100 µM |  | > 100 µM | 2.13 µM | 41.3 µM | 3.14 µM | 79 µM | 4.84 µM |  | > 100 µM |
| O=c1[nH]c(=O)n(Cc2ccccc2CO)cc1Sc1ccccc1 | 53.5 µM |  | > 100 µM | > 100 µM | 43.2 µM | 41.5 µM | 64.7 µM | > 100 µM | > 100 µM | 93.9 µM |  |  |  |  |  |  |  |  |  |
